How the values were obtained:
Plasma Stability = type: in vitro ADME, human
Summary of the method: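 Compounds incubated at 1 μM in fresh human plasma for 1 hour at 37° C, then protein-precipitated with acetonitrile/formic acid containing internal standard. Remaining parent measured by LC-MS/MS in triplicate, expressed as percent of control remaining.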

[1] = Stability in Simulated Intestinal Fluid (SIF); type: in vitro ADME; design: key: % parent compound remaining relative to 0-minute sample
Summary of the method: (§1)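 Compound at 2 μg/mL final was incubated at 37 °C with shaking in SGF with pepsin (pH 1.2) or SIF with pancreatin (pH 6.8), sampled from 0 to 60 min. After acetonitrile precipitation, LC-MS/MS gave % parent remaining vs 0 min; half-life came from ln(% remaining) vs time.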

[2] = Stability in Simulated Gastric Fluid (SGF); type: in vitro ADME; design: key: % parent compound remaining relative to 0-minute sample
Summary of the method: as §1

Caco-2 monolayer = assay: Caco-2 Permeability Assay; type: in vitro ADME, human; details: for Caco-2 Papp: Caco-2 monolayer
Summary of the method: (§2)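 Caco-2 monolayers cultured 21 days (TEER >600 […]); test article at 10 μM in HBSS/HEPES pH 7.4 transport medium, dosed apical or basolateral, ±Pgp inhibitor. Incubated 90 min at 37 °C; both compartments quantified by LC-MS/MS. Papp (A→B, B→A), efflux ratio and % recovery calculated.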

[3] = Caco-2 Permeability Assay; type: in vitro ADME, human; details: human, Caco-2, pH 7.4, Caco-2 monolayer
Summary of the method: as §2

[4] = simulated intestinal fluid, remaining at 1 h
[5] = simulated gastric fluid, remaining at 1 h
[6] = % remaining after 1 h in human plasma
[7] = % remaining after 1 h in simulated intestinal fluid
[8] = % remaining after 1 h in simulated gastric fluid

Compound: 1-tert-butyl 2-{4-oxo-1-[2-(propan-2-yloxy)ethyl]-2-sulfanylidene-1H,2H,3H,4H,5H-pyrrolo[3,2-d]pyrimidin-5-yl}methyl (2R)-pyrrolidine-1,2-dicarboxylate [Example 393]
- human Plasma stability (Plasma Stability; human plasma, remaining at 1 h): 92% remaining
- SIF [1, 4]: 94% remaining
- SGF [2, 5]: 99% remaining
- Caco-2 Papp (Caco-2 monolayer): 0.11 ×10⁻⁶ cm/s

Compound: 5-[{[4-(carbamoyloxy)butoxy]carbon-yl}oxy)methyl]-1-[2-(propan-2-yloxy)ethyl]-2-sulfanylidene-1H,2H,3H,4H,5H-pyrrolo[3,2-d]pyrimidin-4-one [Example 411]
- human Plasma stability (Plasma Stability; [6]): 1% remaining
- SIF [1, 7]: 22% remaining
- SGF [2, 8]: 92% remaining
- Caco-2 Papp (Caco-2 monolayer): <0.107 ×10⁻⁶ cm/s

Compound: 5-{({2-[2-(carbamoyloxy)ethoxy]ethoxy}car-bonyl)oxy]methyl}-1-[2-(propan-2-yloxy)ethyl]-2-sulfanylidene-1H,2H,3H,4H,5H-pyrrolo[3,2-d]pyrimidin-4-one [Example 402]
- human Plasma stability (Plasma Stability; [6]): 99% remaining
- SIF [1, 7]: 89% remaining
- SGF [2, 8]: 99% remaining
- Caco-2 Papp (Caco-2 monolayer): 24.6 ×10⁻⁶ cm/s

Compound: 5-{[2-({[(5-{[(2R)-2-{[(tert-butoxy)carbonyl]amino}-4-methylpentanoyl]oxy}penta-noyl)oxy]methyl}sulfanyl)-4-oxo-1-[2-(propan-2-yloxy)ethyl]-1H,4H,5H-pyrrolo[3,2-d]pyrimidin-5-yl]methoxy}-5-oxopentyl (2R)-2-{[(tert-butoxy)carbonyl]amino}-4-methylpentanoate [Example 348]
- human Plasma stability (Plasma Stability; human plasma, remaining at 1 h): 33% remaining
- SIF [1, 4]: 20% remaining
- SGF [2, 5]: 88% remaining
- Caco-2 Papp (Caco-2 monolayer): <0.0965 ×10⁻⁶ cm/s

Compound: CC(C)OCCn1c(=S)n(COC(=O)[C@H](C)N)c(=O)c2c1ccn2CO.O=C(O)C(F)(F)F [Example 290, trifluoroacetic acid [5-(hydroxymethyl)-4-oxo-1-[2-(propan-2-yloxy)ethyl]-2-sulfanylidene-1H,2H,3H,4H,5H-pyrrolo[3,2-d]pyrimidin-3-yl]methyl (2S)-2-aminopropanoate]
- SIF ([1]; % remaining @ 1 h): 10% @ 1 h
- SGF ([2]; % remaining @ 1 h): 98% @ 1 h
- Caco-2 Papp (nm/s) (Caco-2 monolayer): unstable

Compound: CC(C)OCCn1c(SCOC(=O)CCCOC(=O)[C@H](N)C(C)C)nc(=O)c2c1ccn2COC(=O)CCCOC(=O)[C@H](N)C(C)C.O=C(O)C(F)(F)F.O=C(O)C(F)(F)F [Example 358, bis(trifluoroacetic acid) 4-(((5-(((4-((D-valyl)oxy)butanoyl)oxy)methyl)-1-(2-isopropoxyethyl)-4-oxo-4,5-dihydro-1H-pyrrolo[3,2-d]pyrimidin-2-yl)thio)methoxy)-4-oxobutyl D-valinate]
- human Plasma stability (Plasma Stability; human plasma, remaining at 1 h): 12% remaining
- SIF ([1]; simulated intestinal fluid, bare number, unit or time not given): 48
- SGF [2, 5]: 80% remaining
- Papp at 90 min, 10 µM [3]: 1.78 ×10⁻⁶ cm/s

Compound: CC(C)OCCn1c(=S)[nH]c(=O)c2c1ccn2COC(=O)CCCOC(=O)[C@@H](Cc1ccccc1)NC(=O)OC(C)(C)C [Example 361, {4-oxo-1-[2-(propan-2-yloxy)ethyl]-2-sulfanylidene-1H,2H,3H,4H,5H-pyrrolo[3,2-d]pyrimidin-5-yl}methyl 4-{[(2R)-2-{[(tert-butoxy)carbonyl]amino}-3-phenylpropanoyl]oxy}butanoate]
- human Plasma stability (Plasma Stability; human plasma, remaining at 1 h): 8% remaining
- SIF [1, 4]: 9% remaining
- SGF [2, 5]: 95% remaining
- Papp at 90 min, 10 µM [3]: < 0.31 ×10⁻⁶ cm/s

Compound: CC(C)OCCn1c(=S)[nH]c(=O)c2c1ccn2COC(=O)CCCOC(=O)[C@H](N)Cc1ccccc1.O=C(O)C(F)(F)F [Example 362, trifluoroacetic acid {4-oxo-1-[2-(propan-2-yloxy)ethyl]-2-sulfanylidene-1H,2H,3H,4H,5H-pyrrolo[3,2-d]pyrimidin-5-yl}methyl 4-{[(2R)-2-amino-3-phenylpropanoyl]oxy}butanoate]
- human Plasma stability (Plasma Stability; human plasma, remaining at 1 h): 3% remaining
- SIF [1, 4]: 2% remaining
- SGF [2, 5]: 90% remaining
- Papp at 90 min, 10 µM [3]: 5.12 ×10⁻⁶ cm/s

Compound: CC(C)OCCn1c(SCOC(=O)CCCOC(=O)[C@@H](Cc2ccccc2)NC(=O)OC(C)(C)C)nc(=O)c2c1ccn2COC(=O)CCCOC(=O)[C@@H](Cc1ccccc1)NC(=O)OC(C)(C)C [Example 363, [(5-{[(4-{[(2R)-2-{[(tert-butoxy)carbonyl]amino}-3-phenylpropanoyl]oxy}butanoyl)oxy]methyl}-4-oxo-1-[2-(propan-2-yloxy)ethyl]-1H,4H,5H-pyrrolo[3,2-d]pyrimidin-2-yl)sulfanyl]methyl 4-{[(2R)-2-{[(tert-butoxy)carbonyl]amino}-3-phenylpropanoyl]oxy}butanoate]
- human Plasma stability (Plasma Stability; human plasma, remaining at 1 h): 42% remaining
- SIF [1, 4]: 18% remaining
- SGF [2, 5]: 97% remaining
- Papp at 90 min, 10 µM [3]: 1.63 ×10⁻⁶ cm/s

Compound: CC(C)OCCn1c(SCOC(=O)CCCOC(=O)[C@H](N)Cc2ccccc2)nc(=O)c2c1ccn2COC(=O)CCCOC(=O)[C@H](N)Cc1ccccc1.O=C(O)C(F)(F)F.O=C(O)C(F)(F)F [Example 364, bis(trifluoroacetic acid) [(5-{[(4-{[(2R)-2-amino-3-phenylpropanoyl]oxy}butanoyl)oxy]methyl}-4-oxo-1-[2-(propan-2-yloxy)ethyl]-1H,4H,5H-pyrrolo[3,2-d]pyrimidin-2-yl)sulfanyl]methyl 4-{[(2R)-2-amino-3-phenylpropanoyl]oxy}butanoate]
- human Plasma stability (Plasma Stability; human plasma, remaining at 1 h): 31% remaining
- SIF [1, 4]: 1% remaining
- SGF [2, 5]: 47% remaining
- Papp at 90 min, 10 µM [3]: 0.277 ×10⁻⁶ cm/s

Compound: CC(C)OCCn1c(=S)n(COC(=O)CCCOC(=O)[C@@H](Cc2ccccc2)NC(=O)OC(C)(C)C)c(=O)c2c1ccn2COC(=O)CCCOC(=O)[C@@H](Cc1ccccc1)NC(=O)OC(C)(C)C [Example 365, (3-{[(4-{[(2R)-2-{[(tert-butoxy)carbonyl]amino}-3-phenylpropanoyl]oxy}butanoyl)oxy]methyl}-4-oxo-1-[2-(propan-2-yloxy)ethyl]-2-sulfanylidene-1H,2H,3H,4H,5H-pyrrolo[3,2-d]pyrimidin-5-yl)methyl 4-{[(2R)-2-{[(tert-butoxy)carbonyl]amino}-3-phenylpropanoyl]oxy}butanoate]
- human Plasma stability (Plasma Stability; human plasma, remaining at 1 h): 11% remaining
- SIF [1, 4]: 5% remaining
- SGF [2, 5]: 85% remaining
- Papp at 90 min, 10 µM [3]: < 0.263 ×10⁻⁶ cm/s

Compound: CSCC[C@@H](N)C(=O)OCCC(=O)OCn1ccc2c1c(=O)[nH]c(=S)n2CCOC(C)C.O=C(O)C(F)(F)F [Example 366, trifluoroacetic acid 3-oxo-3-({4-oxo-1-[2-(propan-2-yloxy)ethyl]-2-sulfanylidene-1H,2H,3H,4H,5H-pyrrolo[3,2-d]pyrimidin-5-yl}methoxy)propyl (2R)-2-amino-4-(methylsulfanyl)butanoate]
- human Plasma stability (Plasma Stability; human plasma, remaining at 1 h): 74% remaining
- SIF [1, 4]: 2% remaining
- SGF [2, 5]: 76% remaining
- Papp at 90 min, 10 µM [3]: < 0.76 ×10⁻⁶ cm/s

Compound: CC(C)C[C@H](N)C(=O)OCCC(=O)OCn1ccc2c1c(=O)[nH]c(=S)n2CCOC(C)C.O=C(O)C(F)(F)F [Example 367, trifluoroacetic acid 3-oxo-3-({4-oxo-1-[2-(propan-2-yloxy)ethyl]-2-sulfanylidene-1H,2H,3H,4H,5H-pyrrolo [3,2-d]pyrimidin-5-yl}methoxy)propyl (2S)-2-amino-4-methylpentanoate]
- human Plasma stability (Plasma Stability; human plasma, remaining at 1 h): 1% remaining
- SIF [1, 4]: 0% remaining
- SGF [2, 5]: 100% remaining
- Papp at 90 min, 10 µM [3]: < 0.108 ×10⁻⁶ cm/s

Compound: CC(C)C[C@@H](N)C(=O)OCCC(=O)OCn1ccc2c1c(=O)[nH]c(=S)n2CCOC(C)C.O=C(O)C(F)(F)F [Example 368, trifluoroacetic acid 3-oxo-3-({4-oxo-1-[2-(propan-2-yloxy)ethyl]-2-sulfanylidene-1H,2H,3H,4H,5H-pyrrolo[3,2-d]pyrimidin-5-yl}methoxy)propyl (2R)-2-amino-4-methylpentanoate]
- human Plasma stability (Plasma Stability; human plasma, remaining at 1 h): 1% remaining
- SIF [1, 4]: 1% remaining
- SGF [2, 5]: 100% remaining
- Papp at 90 min, 10 µM [3]: 0.12 ×10⁻⁶ cm/s

Compound: CC(C)OCCn1c(SCOC(=O)OCCOCCNC(=O)OC(C)(C)C)nc(=O)c2[nH]ccc21 [Example 369, 2-{[{{[2-(2-{[(tert-butoxy)carbonyl]amino}ethoxy)eth-oxy]carbonyl}oxy)methyl]sulfanyl}-1-[2-(propan-2-yloxy)ethyl]-1H,4H,5H-pyrrolo[3,2-d]pyrimidin-4-one]
- human Plasma stability (Plasma Stability; human plasma, remaining at 1 h): 1% remaining
- SIF [1, 4]: 1% remaining
- SGF [2, 5]: 89% remaining
- Papp at 90 min, 10 µM [3]: < 0.107 ×10⁻⁶ cm/s

Compound: CSCC[C@@H](NC(=O)OC(C)(C)C)C(=O)NCCOCCOC(=O)OCn1ccc2c1c(=O)[nH]c(=S)n2CCOC(C)C [Example 389, (2R)-2-{[(tert-butoxy)carbonyl]amino}-4-(methylsulfanyl)-N-[2-(2-{[{{4-oxo-1-[2-(propan-2-yloxy)ethyl]-2-sulfanylidene-1H,2H,3H,4H,5H-pyrrolo[3,2-d]pyrimidin-5-yl}methoxy)carbonyl]oxy}ethoxy)eth-yl]butanamide]
- human Plasma stability (Plasma Stability; human plasma, remaining at 1 h): 1% remaining
- SIF [1, 4]: 60% remaining
- SGF [2, 5]: 98% remaining
- Papp at 90 min, 10 µM [3]: 5.94 ×10⁻⁶ cm/s

From patent publication US20240067651A1 (Biohaven Therapeutics Ltd., priority 2019, published 2024)
